#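 All cell lines were grown in 96-well plates and treated with compound for 48 hours. GI50: concentration for 50% inhibition of growth. TGI is the concentration that stops growth completely.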
# What was measured:
# Test in all cases: NCI anticancer screen, dose series, 48 h
# UO-31 renal = tested on: UO-31 renal
# HT29 colon = tested on: HT29 colon
# OVCAR-4 ovarian = tested on: OVCAR-4 ovarian
# HOP-62 NSCLC = tested on: HOP-62 NSCLC
# NCI-H23 lung = tested on: NCI-H23 lung
# RPMI-8226 leukemia = tested on: RPMI-8226 leukemia
# SNB-19 CNS = tested on: SNB-19 CNS
# MDA-MB-435 = tested on: MDA-MB-435
# NCI/ADR-RES ovarian = tested on: NCI/ADR-RES ovarian
# HCT-15 colon = tested on: HCT-15 colon
# HOP-92 NSCLC = tested on: HOP-92 NSCLC
# IGROV1 ovarian = tested on: IGROV1 ovarian
# SF-539 CNS = tested on: SF-539 CNS
# KM12 colon = tested on: KM12 colon
# MALME-3M melanoma = tested on: MALME-3M melanoma
# UACC-62 melanoma = tested on: UACC-62 melanoma
# SK-MEL-28 melanoma = tested on: SK-MEL-28 melanoma
# MCF7 breast = tested on: MCF7 breast
# U251 CNS = tested on: U251 CNS
# SK-OV-3 ovarian = tested on: SK-OV-3 ovarian
# OVCAR-8 ovarian = tested on: OVCAR-8 ovarian
# DU-145 prostate = tested on: DU-145 prostate
# CCRF-CEM leukemia = tested on: CCRF-CEM leukemia
# SF-268 CNS = tested on: SF-268 CNS
# SR leukemia = tested on: SR leukemia
# NCI-H460 lung = tested on: NCI-H460 lung
# UACC-257 melanoma = tested on: UACC-257 melanoma
# HCT-116 colon = tested on: HCT-116 colon
# SW-620 colon = tested on: SW-620 colon
# EKVX NSCLC = tested on: EKVX NSCLC
# NCI-H226 lung = tested on: NCI-H226 lung
# OVCAR-3 ovarian = tested on: OVCAR-3 ovarian
# SF-295 CNS = tested on: SF-295 CNS
# OVCAR-5 ovarian = tested on: OVCAR-5 ovarian
# SK-MEL-2 melanoma = tested on: SK-MEL-2 melanoma
# A498 renal = tested on: A498 renal
# TK-10 renal = tested on: TK-10 renal
# A549 NSCLC = tested on: A549 NSCLC
# MOLT-4 leukemia = tested on: MOLT-4 leukemia
# SNB-75 CNS = tested on: SNB-75 CNS
# NCI-H522 lung = tested on: NCI-H522 lung
# M14 melanoma = tested on: M14 melanoma
# SN12C renal = tested on: SN12C renal
# HL-60(TB) leukemia = tested on: HL-60(TB) leukemia
# LOX IMVI melanoma = tested on: LOX IMVI melanoma
# RXF 393 renal = tested on: RXF 393 renal
# 786-0 renal = tested on: 786-0 renal
# MDA-MB-231 breast = tested on: MDA-MB-231 breast
# T-47D breast = tested on: T-47D breast
# PC-3 prostate = tested on: PC-3 prostate
# HCC-2998 colon = tested on: HCC-2998 colon
# SK-MEL-5 melanoma = tested on: SK-MEL-5 melanoma
# K-562 leukemia = tested on: K-562 leukemia
# BT-549 breast = tested on: BT-549 breast
compound,measurement,setting,value
COc1ccc2[nH]c(=O)c(/C=C/C(=O)c3ccccc3OC)cc2c1,GI50,UO-31 renal,958 nM
same,TGI,UO-31 renal,2280 nM
same,GI50,HT29 colon,293 nM
same,TGI,HT29 colon,1370 nM
same,GI50,OVCAR-4 ovarian,4.07 µM
same,TGI,OVCAR-4 ovarian,23.2 µM
same,GI50,HOP-62 NSCLC,1240 nM
same,TGI,HOP-62 NSCLC,5.32 µM
same,GI50,NCI-H23 lung,1330 nM
same,TGI,NCI-H23 lung,3.93 µM
same,GI50,RPMI-8226 leukemia,385 nM
same,TGI,RPMI-8226 leukemia,2210 nM
same,GI50,SNB-19 CNS,362 nM
same,TGI,SNB-19 CNS,1790 nM
same,GI50,MDA-MB-435,56.4 nM
same,TGI,MDA-MB-435,275 nM
same,GI50,NCI/ADR-RES ovarian,273 nM
same,TGI,NCI/ADR-RES ovarian,20 µM
same,GI50,HCT-15 colon,395 nM
same,TGI,HCT-15 colon,2050 nM
same,GI50,HOP-92 NSCLC,1570 nM
same,TGI,HOP-92 NSCLC,6.17 µM
same,GI50,IGROV1 ovarian,582 nM
same,TGI,IGROV1 ovarian,17 µM
same,GI50,SF-539 CNS,443 nM
same,TGI,SF-539 CNS,2490 nM
same,GI50,KM12 colon,321 nM
same,TGI,KM12 colon,1580 nM
same,GI50,MALME-3M melanoma,766 nM
same,TGI,MALME-3M melanoma,8.09 µM
same,GI50,UACC-62 melanoma,478 nM
same,TGI,UACC-62 melanoma,2970 nM
same,GI50,SK-MEL-28 melanoma,1520 nM
same,TGI,SK-MEL-28 melanoma,7.31 µM
same,GI50,MCF7 breast,312 nM
same,TGI,MCF7 breast,7.48 µM
same,GI50,U251 CNS,521 nM
same,TGI,U251 CNS,1700 nM
same,GI50,SK-OV-3 ovarian,2230 nM
same,TGI,SK-OV-3 ovarian,12.8 µM
same,GI50,OVCAR-8 ovarian,874 nM
same,TGI,OVCAR-8 ovarian,11.6 µM
same,GI50,DU-145 prostate,529 nM
same,TGI,DU-145 prostate,1960 nM
same,GI50,CCRF-CEM leukemia,392 nM
same,TGI,CCRF-CEM leukemia,> 100 µM
same,GI50,SF-268 CNS,690 nM
same,TGI,SF-268 CNS,10.5 µM
same,GI50,SR leukemia,65.6 nM
same,TGI,SR leukemia,10.3 µM
same,GI50,NCI-H460 lung,380 nM
same,TGI,NCI-H460 lung,2250 nM
same,GI50,UACC-257 melanoma,1380 nM
same,TGI,UACC-257 melanoma,3.05 µM
same,GI50,HCT-116 colon,348 nM
same,TGI,HCT-116 colon,1480 nM
same,GI50,SW-620 colon,335 nM
same,TGI,SW-620 colon,2240 nM
same,GI50,EKVX NSCLC,2050 nM
same,TGI,EKVX NSCLC,10.5 µM
same,GI50,NCI-H226 lung,3.34 µM
same,TGI,NCI-H226 lung,18.5 µM
same,GI50,OVCAR-3 ovarian,359 nM
same,TGI,OVCAR-3 ovarian,1640 nM
same,GI50,SF-295 CNS,529 nM
same,TGI,SF-295 CNS,12.1 µM
same,GI50,OVCAR-5 ovarian,1970 nM
same,TGI,OVCAR-5 ovarian,10.4 µM
same,GI50,SK-MEL-2 melanoma,694 nM
same,TGI,SK-MEL-2 melanoma,4.39 µM
same,GI50,A498 renal,656 nM
same,TGI,A498 renal,4.55 µM
same,GI50,TK-10 renal,2310 nM
same,TGI,TK-10 renal,13.1 µM
same,GI50,A549 NSCLC,2090 nM
same,TGI,A549 NSCLC,10.4 µM
same,GI50,MOLT-4 leukemia,421 nM
same,TGI,MOLT-4 leukemia,27.1 µM
same,GI50,SNB-75 CNS,470 nM
same,TGI,SNB-75 CNS,14.2 µM
same,GI50,NCI-H522 lung,352 nM
same,TGI,NCI-H522 lung,2060 nM
same,GI50,M14 melanoma,278 nM
same,TGI,M14 melanoma,1410 nM
same,GI50,SN12C renal,537 nM
same,TGI,SN12C renal,10.3 µM
same,GI50,HL-60(TB) leukemia,206 nM
same,TGI,HL-60(TB) leukemia,883 nM
same,GI50,LOX IMVI melanoma,379 nM
same,TGI,LOX IMVI melanoma,1610 nM
same,GI50,RXF 393 renal,1020 nM
same,TGI,RXF 393 renal,2570 nM
same,GI50,786-0 renal,378 nM
same,TGI,786-0 renal,1560 nM
same,GI50,MDA-MB-231 breast,1440 nM
same,TGI,MDA-MB-231 breast,11 µM
same,GI50,T-47D breast,1060 nM
same,TGI,T-47D breast,11.8 µM
same,GI50,PC-3 prostate,842 nM
same,TGI,PC-3 prostate,3.75 µM
same,GI50,HCC-2998 colon,1570 nM
same,TGI,HCC-2998 colon,3.03 µM
same,GI50,SK-MEL-5 melanoma,728 nM
same,TGI,SK-MEL-5 melanoma,2080 nM
same,GI50,K-562 leukemia,162 nM
same,TGI,K-562 leukemia,> 100 µM
same,GI50,BT-549 breast,387 nM
same,TGI,BT-549 breast,2420 nM
